Experimental data taken from US7741245B2, “Method for treating plants or plant parts” (Rohm and Haas Company, priority 2004, dated 2010).

Tested on: Patio variety tomato seedlings
Test: Tomato Epinasty Test
Type: in vivo
Details: 1000 ppm v/v OCPO in air of sealed chamber; ethylene 10 ppm v/v injected four hours later; scored sixteen hours later
Protocol: The biological activity of OCPO was assessed with the Tomato Epinasty Test. Epinasty is downward bending of leaves. The test was performed as follows. Test plants are Patio variety tomato seedlings planted two plants per three inch square plastic pot. Volatile gas treatment entailed placing two pots of Patio variety tomatoes into a polystyrene 4.8 L volume treatment chamber along with one-half (upper or lower section) of a 50×9 mm plastic Petri dish containing a Gelman filter pad. OCPO, dissolved in 1.0 ml acetone, was pipetted onto the filter pad and the chamber was immediately sealed. The amount of OCPO was calculated to give concentration of 1000 ppm v/v of OCPO in the air of the sealed chamber. Four hours later ethylene gas was injected into the sealed chamber in an amount to give concentration of ethylene of 10 ppm v/v final concentration in the sealed chamber. Sixteen hours later the chambers were opened in an exhaust hood, allowed to air, and the plants scored visually for the degree of protection against ethylene-induced epinasty conferred by the experimental compound when compared to untreated controls on a scale of 0 to 10. A rating of 10 means complete protection. A rating of 0 means no protection from the effects of ethylene.

CCCCCCCCc1cc1=O [OCPO, 1-octylcycloprop-1-en-2-one]
protection against ethylene-induced epinasty, visual rating on a scale of 0 to 10 (10 = complete protection, 0 = no protection): 7
